Measurements taken from patent US8106052B2, “Luminescence-based methods and probes for measuring cytochrome P450 activity” (Promega Corporation, priority 2002, dated 2012).
pIC50: −log10 of the molar value. Blank lines part the entries; values can stand above or below the compound they belong to.

What was measured:
[1] = system: thermostable luciferase; assay: Stabilization of luminescent signal using luciferase inhibitors; settings: 100 micromolar inhibitor; CYP1A1 with Luciferin chloroethyl ether; read for 1 hour
Method: FIG. 17. Stabilization of luminescent signals using luciferase inhibitors. […] Luminescence was read immediately and at subsequent 5 minute intervals for 1 hour.
(AMBT) or 2-(4-aminophenyl)-6-methylbenzothiazole (APMBT), were evaluated to determine their effect on stabilizing a luminescent signal.
Luminescence was read immediately and at subsequent 5 minute intervals for 1 hour.

[2] = target: T1, CYP1A1 (Homo sapiens, UniProt P04798); assay: Two-step luminescent CYP450 inhibition assay; assay type: biochemical; set-up: purchased GenTest (Woburn, Mass.); host or cells: Sf9 insect cells; settings: substrate Luc CEE; 50 microliter reaction, 1 picomole CYP450; read-out: IC50 of known CYP450 substrate against CYP1A1/Luc CEE
T1 sequence (P04798 1-512): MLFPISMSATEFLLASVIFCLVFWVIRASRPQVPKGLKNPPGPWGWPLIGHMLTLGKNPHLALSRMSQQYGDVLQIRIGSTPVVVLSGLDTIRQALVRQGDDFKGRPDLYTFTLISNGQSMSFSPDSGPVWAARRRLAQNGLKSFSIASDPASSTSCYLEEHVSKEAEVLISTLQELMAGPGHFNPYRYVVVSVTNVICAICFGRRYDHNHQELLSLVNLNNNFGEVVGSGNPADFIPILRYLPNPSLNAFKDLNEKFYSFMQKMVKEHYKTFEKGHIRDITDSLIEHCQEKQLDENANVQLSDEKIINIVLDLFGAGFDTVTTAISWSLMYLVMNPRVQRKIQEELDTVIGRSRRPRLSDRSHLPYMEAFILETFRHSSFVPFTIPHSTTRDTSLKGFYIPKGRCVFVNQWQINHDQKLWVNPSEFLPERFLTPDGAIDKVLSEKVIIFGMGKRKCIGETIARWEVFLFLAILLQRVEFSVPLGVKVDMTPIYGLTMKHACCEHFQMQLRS
Method: After an initial incubation period at 37° C.
Luciferin derivatives as substrates for luminescent CYP450 assays would be useful as probes for detecting other CYP450 substrates. Because two distinct substrates for the same CYP450 isoform will likely compete for the active site, it is possible to characterize known substrates and to identify novel substrates by observing their capacity to inhibit the luminescent reactions with luciferin derivatives. […] The drugs inhibited the reactions in a dose-dependent manner, thus verifying the expectation that CYP450 substrates can be detected by these luminescent assays (see table below). IC50s were calculated by non-linear regression analysis with the program GraphPad PRISM™ (San Diego, Calif.). The reactions were performed as described in Example 2 except the first step (CYP450 reaction) was in a 50 microliter reaction volume with 1 picomole of CYP450. In the second step a 50 microliter luciferase reaction was added to give final concentrations of 50 micrograms/mL recombinant, mutant of firefly luciferase from Photuris pennsylvanica from Promega (17), 200 micromolar ATP, 0.1% tergitol (v/v), 4.0 mM MgSO4 and 100 mM Tricine pH 8.4. FIGS. 11(a)-(c) illustrate the actual inhibition curves.

[3] = target: T2, CYP2E1 (Homo sapiens, UniProt P05181); assay: Two-step CYP450/Renilla reaction, coelenterazine derivative evaluation; assay type: biochemical; settings: 60 min at 37° C.; 3 micromolar substrate
T2 construct: purchased GenTest (Woburn, Mass.); host or cells: Sf9 insect cells, baculovirus
T2 sequence (P05181 whole entry): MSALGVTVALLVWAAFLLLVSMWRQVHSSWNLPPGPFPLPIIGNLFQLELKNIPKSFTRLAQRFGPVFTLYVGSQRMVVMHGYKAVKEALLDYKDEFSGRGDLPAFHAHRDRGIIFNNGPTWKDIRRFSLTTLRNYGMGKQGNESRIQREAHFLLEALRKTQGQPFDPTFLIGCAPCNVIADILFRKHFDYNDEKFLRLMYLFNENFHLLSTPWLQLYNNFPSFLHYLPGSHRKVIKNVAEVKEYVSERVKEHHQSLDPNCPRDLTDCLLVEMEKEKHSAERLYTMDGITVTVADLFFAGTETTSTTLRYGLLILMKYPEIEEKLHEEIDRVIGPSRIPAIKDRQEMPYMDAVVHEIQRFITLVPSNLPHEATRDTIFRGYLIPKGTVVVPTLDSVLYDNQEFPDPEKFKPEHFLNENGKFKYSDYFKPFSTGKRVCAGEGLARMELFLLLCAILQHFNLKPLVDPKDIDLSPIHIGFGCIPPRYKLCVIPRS
Method: (§1) In this Example, P450 activity was determined using coelenterazine and coelenterazine derivatives, methoxy-coelenterazine HH and coelenterazine HH, in a two-step reaction system. In these assays, P450 acts on the coelenterazine or coelenterazine derivatives in one of two ways. […] An example of this type of coelenterazine derivative is methoxy-coelenterazine HH. […] In both types of assay it is possible to detect P450 activity either directly by a change in chemiluminescence or indirectly by a change in bioluminescence from a Renilla-type luciferase.
(§2) […]; 625 mM KCl; 0.125 mM EDTA pH 8.0; 0.25% Triton X-100; 0.125% Mazu; 1.25% Glycerol; 0.25 mg/mL gelatin to the P450 reactions. Renilla luciferase (1.2 ng/mL) (purchased from Chemicon) was added for detection of bioluminescence of P450 altered coelenterazine or coelenterazine derivatives.

[4] = target: T3, CYP1A2 (Homo sapiens, UniProt P05177); assay: as above; assay type: biochemical; settings: 60 min at 37° C.
T3 sequence (P05177 1-516): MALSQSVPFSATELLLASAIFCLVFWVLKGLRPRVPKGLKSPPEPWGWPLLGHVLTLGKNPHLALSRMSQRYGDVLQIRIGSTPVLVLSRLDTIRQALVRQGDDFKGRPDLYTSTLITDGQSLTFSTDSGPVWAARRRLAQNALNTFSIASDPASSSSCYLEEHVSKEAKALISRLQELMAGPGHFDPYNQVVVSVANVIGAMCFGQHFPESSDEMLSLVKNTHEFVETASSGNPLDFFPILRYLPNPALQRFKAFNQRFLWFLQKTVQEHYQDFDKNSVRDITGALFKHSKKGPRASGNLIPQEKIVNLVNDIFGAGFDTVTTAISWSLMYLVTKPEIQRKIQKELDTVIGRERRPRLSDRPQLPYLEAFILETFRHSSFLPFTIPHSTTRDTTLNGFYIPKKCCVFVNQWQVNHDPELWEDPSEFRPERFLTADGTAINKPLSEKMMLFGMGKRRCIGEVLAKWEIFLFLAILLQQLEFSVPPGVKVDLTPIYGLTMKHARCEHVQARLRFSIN
Method: as §1, §2

[5] = target: T1, CYP1A1; assay: as above; assay type: biochemical; set-up: purchased GenTest (Woburn, Mass.); host or cells: baculovirus-infected insect cells; settings: 60 min at 37° C.; 10 micromolar substrate
Method: as §1, §2

[6] = target: T4, CYP2B6 (Homo sapiens, UniProt P20813); assay: as above; assay type: biochemical; settings: 60 min at 37° C.; 10 micromolar substrate
T4 construct: purchased GenTest (Woburn, Mass.); host or cells: Sf9 insect cells, baculovirus
T4 sequence (P20813 1-491): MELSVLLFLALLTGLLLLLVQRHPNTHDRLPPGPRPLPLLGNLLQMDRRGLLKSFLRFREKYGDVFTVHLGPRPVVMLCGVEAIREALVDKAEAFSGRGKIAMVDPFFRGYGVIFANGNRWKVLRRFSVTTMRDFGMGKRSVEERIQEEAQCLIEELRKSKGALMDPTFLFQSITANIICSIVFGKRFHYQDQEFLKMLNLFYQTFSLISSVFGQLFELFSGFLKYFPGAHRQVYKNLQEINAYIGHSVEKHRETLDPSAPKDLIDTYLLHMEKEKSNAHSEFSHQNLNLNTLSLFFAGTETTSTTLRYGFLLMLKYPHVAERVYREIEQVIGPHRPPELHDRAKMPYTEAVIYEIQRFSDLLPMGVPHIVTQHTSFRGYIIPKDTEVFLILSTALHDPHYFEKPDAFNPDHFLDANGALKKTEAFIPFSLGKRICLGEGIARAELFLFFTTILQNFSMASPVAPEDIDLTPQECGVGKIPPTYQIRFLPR
Method: as §1, §2

[7] = target: T5, CYP2C19 (Homo sapiens, UniProt P33261); assay: as above; assay type: biochemical; settings: 60 min at 37° C.; 10 micromolar substrate
T5 construct: purchased GenTest (Woburn, Mass.); host or cells: Sf9 insect cells, baculovirus
T5 sequence (P33261 whole entry): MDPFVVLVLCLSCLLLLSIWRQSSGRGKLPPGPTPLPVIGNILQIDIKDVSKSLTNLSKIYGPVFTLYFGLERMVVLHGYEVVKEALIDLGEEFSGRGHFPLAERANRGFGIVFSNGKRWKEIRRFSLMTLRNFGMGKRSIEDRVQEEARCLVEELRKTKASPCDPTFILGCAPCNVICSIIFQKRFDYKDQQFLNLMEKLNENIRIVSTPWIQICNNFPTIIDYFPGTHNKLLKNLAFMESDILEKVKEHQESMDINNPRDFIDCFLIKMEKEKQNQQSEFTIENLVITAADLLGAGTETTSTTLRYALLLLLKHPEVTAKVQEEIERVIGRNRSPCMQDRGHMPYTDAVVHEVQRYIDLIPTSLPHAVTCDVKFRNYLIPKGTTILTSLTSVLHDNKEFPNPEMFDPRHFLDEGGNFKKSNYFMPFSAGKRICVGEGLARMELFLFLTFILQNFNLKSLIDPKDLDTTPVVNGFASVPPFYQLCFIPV
Method: as §1, §2

SMILES: Cc1ccc2nc(-c3ccc(N)cc3)sc2c1 [APMBT, 2-(4-aminophenyl)-6-methylbenzothiazole]
- Effect on luminescent signal in a luminescent CYP450 assay [1]: stabilizes the luminescent signal

- pIC50 [2]: 4.68
SMILES: CCOc1ccc(NC(C)=O)cc1 [Phenacetin, phenacetin]

- Change in chemiluminescence and bioluminescence after incubation with CYP2E1 [3]: significant reduction
- Change in chemiluminescence and bioluminescence after incubation with CYP1A2 ([4]; 3 micromolar substrate): significant reduction
SMILES: O=c1c(Cc2ccccc2)nc2c(Cc3ccccc3)[nH]c(-c3ccccc3)cn1-2 [coelenterazine HH, 2,8-Dibenzyl-6-phenyl-7H-imidazo[1,2-a]pyrazin-3-one]

- Change in chemiluminescence and bioluminescence after incubation with CYP1A1 [5]: large increase
- Increase in chemiluminescence and bioluminescence with CYP1A2 (+P450 RLU/-P450 RLU) ([4]; 10 micromolar substrate): 2-5 ×
- Increase in chemiluminescence and bioluminescence with CYP2B6 (+P450 RLU/-P450 RLU) [6]: 2-5 ×
- Increase in chemiluminescence and bioluminescence with CYP2C19 (+P450 RLU/-P450 RLU) [7]: 2-5 ×
SMILES: COc1c(Cc2ccccc2)nc2c(Cc3ccccc3)nc(-c3ccccc3)cn12 [methyl-coelenterazine HH, 2,8-Dibenzyl-3-methoxy-6-phenyl-imidazo[1,2-a]pyrazine]
